Each block holds one molecule with its values, some of them ahead of it.
Assays:
Test in all cases: Competitive isoTOP-ABPP, cell lysates;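 for isoTOP-ABPP reactivity profile ratio, O00170 C122: Heavy/light ratio DMSO over fragment-treated so higher means more cysteine engagement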;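 for isoTOP-ABPP reactivity profile ratio, P68036 C86: Heavy/light ratio DMSO over fragment-treated so higher means more cysteine engagement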
Assay type in all cases: binding
Conditions in all cases: 500 μm, in-vitro_ramos_231
[1] = biological target: T1, ACAT1 C119 (P24752) (Homo sapiens, UniProt P24752)
T1 sequence (P24752 34-427): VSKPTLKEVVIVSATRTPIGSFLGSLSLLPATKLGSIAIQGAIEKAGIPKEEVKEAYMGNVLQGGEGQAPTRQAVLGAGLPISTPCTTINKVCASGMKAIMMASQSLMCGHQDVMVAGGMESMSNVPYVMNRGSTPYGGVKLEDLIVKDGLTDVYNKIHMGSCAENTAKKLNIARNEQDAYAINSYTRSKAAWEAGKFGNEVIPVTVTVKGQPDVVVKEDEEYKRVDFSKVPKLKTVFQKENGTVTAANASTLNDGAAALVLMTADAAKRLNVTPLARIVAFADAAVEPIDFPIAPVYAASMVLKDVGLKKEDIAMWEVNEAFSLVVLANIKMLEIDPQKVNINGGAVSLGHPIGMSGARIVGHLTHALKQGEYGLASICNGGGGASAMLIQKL

[2] = biological target: UBE2L3 C86 (P68036) (Homo sapiens, UniProt P68036);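 for isoTOP-ABPP reactivity profile ratio, P68036 C86: Heavy/light ratio DMSO over fragment-treated so higher means more cysteine engagement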
Experimental: (§1) TEV digests were pressure loaded onto a 250 μm (inner diameter) fused silica capillary column packed with C18 resin (Aqua 5 μm, Phenomenex). The samples were analyzed by multidimensional liquid chromatography tandem mass spectrometry (MudPIT), using an LTQ-Velos Orbitrap mass spectrometer (Thermo Scientific) coupled to an Agilent 1200-series quaternary pump. The peptides were eluted onto a biphasic column with a 5 μm tip (100 μm fused silica, packed with C18 (10 cm) and bulk strong cation exchange resin (3 cm, SCX, Phenomenex,)) in a 5-step MudPIT experiment, using 0%, 30%, 60%, 90%, and 100% salt bumps of 500 mM aqueous ammonium acetate and using a gradient of 5-100% buffer B in buffer A (buffer A: 95% water, 5% acetonitrile, 0.1% formic acid; buffer B: 5% water, 95% acetonitrile, 0.1% formic acid) as has been described in Weerapana et al. Nat Protoc 2:1414-1425 (2007). Data was collected in data-dependent acquisition mode with dynamic exclusion enabled (20 s, repeat of 2). One full MS (MS1) scan (400-1800 m/z) was followed by 30 MS2 scans (ITMS) of the nth most abundant ions.
(§2) The ratios of heavy/light for each unique peptide (DMSO/compound treated; isoTOP-ABPP ratios, R values) were quantified with in-house CIMAGE software, using default parameters (3 ms s per peak and signal to noise threshold 2.5). Site-specific engagement of electrophilic fragments was assessed by blockade of IA-alkyne probe labeling. […] Ratios for unique peptide entries were calculated for each experiment; overlapping peptides with the same modified cysteine (e.g. different charge states, MudPIT chromatographic steps or tryptic termini) were grouped together and the median ratio was reported as the final ratio (R). The peptide ratios reported by CIMAGE were further filtered to ensure the removal or correction of low quality ratios in each individual dataset. The quality filters applied were the following: removal of half tryptic peptides; for ratios with high standard deviations from the median (90% of the median or above) the lowest ratio was taken instead of the median; removal of peptides with R=20 and only a single ms2 event triggered during the elution of the parent ion; manual annotation of all the peptides with ratios of 20, removing any peptides with low-quality elution profiles that remained after the previous curation steps. Proteome reactivity values for individual fragments were computed as the percentage of the total quantified cysteine-containing peptides with R values≥4 (defined as liganded cysteines) for each replicate experiment and the final proteome reactivity value was calculated as the mean for all replicate experiments for each fragment from both MDA-MB-231 and Ramos cellular proteomes.
(§3) Biological replicates of the same compound and cell-line were averaged if the standard deviation was below 60% of the mean; otherwise the lowest value of the ratio set was taken.

[3] = biological target: T2, PDIA6 C55 (Q15084) (Homo sapiens, UniProt Q15084)
T2 sequence (Q15084 20-440): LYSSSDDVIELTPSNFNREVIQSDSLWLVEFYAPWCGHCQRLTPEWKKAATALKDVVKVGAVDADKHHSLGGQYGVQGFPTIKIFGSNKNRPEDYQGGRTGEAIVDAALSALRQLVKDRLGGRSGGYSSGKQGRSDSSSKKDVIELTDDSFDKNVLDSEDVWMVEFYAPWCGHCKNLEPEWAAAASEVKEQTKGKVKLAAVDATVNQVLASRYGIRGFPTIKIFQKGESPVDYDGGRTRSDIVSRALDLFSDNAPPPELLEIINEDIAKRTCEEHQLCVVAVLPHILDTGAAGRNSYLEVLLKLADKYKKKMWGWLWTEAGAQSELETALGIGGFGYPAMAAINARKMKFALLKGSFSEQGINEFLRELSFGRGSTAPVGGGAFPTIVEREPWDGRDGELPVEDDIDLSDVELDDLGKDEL
Experimental: as §1, §2, §3

[4] = biological target: SAMHD1 C522 (Q9Y3Z3) (Homo sapiens, UniProt Q9Y3Z3)
Experimental: as §1, §2, §3

[5] = biological target: ZNF217 C286 (O75362) (Homo sapiens, UniProt O75362)
Experimental: as §1, §2, §3

[6] = biological target: LRBA C1704 (P50851) (Homo sapiens, UniProt P50851)
Experimental: as §1, §2, §3

[7] = biological target: PRMT1 C109 (Q99873) (Homo sapiens, UniProt Q99873)
Experimental: as §1, §2, §3

[8] = biological target: T3, AIP C122 (O00170) (Homo sapiens, UniProt O00170);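 note: Heavy/light ratio DMSO over fragment-treated so higher means more cysteine engagement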
T3 sequence (O00170 1-330): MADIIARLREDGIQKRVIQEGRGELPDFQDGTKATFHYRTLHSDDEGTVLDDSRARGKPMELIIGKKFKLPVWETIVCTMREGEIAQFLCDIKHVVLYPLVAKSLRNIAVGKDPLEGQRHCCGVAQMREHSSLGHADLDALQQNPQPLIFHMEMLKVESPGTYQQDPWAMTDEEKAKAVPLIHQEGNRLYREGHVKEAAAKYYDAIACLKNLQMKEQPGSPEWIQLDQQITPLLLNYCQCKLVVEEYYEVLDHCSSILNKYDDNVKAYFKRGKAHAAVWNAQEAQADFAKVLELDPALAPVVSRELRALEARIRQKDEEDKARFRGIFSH
Experimental: as §1, §2, §3

[9] = biological target: XPO1 C34 (O14980) (Homo sapiens, UniProt O14980)
Experimental: as §1, §2, §3

[10] = biological target: T4, PDIA6 C190 (Q15084) (Homo sapiens, UniProt Q15084)
T4 sequence (Q15084 20-440): T2 sequence (Q15084 20-440)
Experimental: as §1, §2, §3

[11] = biological target: T5, ACAT1 C126 (P24752) (Homo sapiens, UniProt P24752)
T5 sequence (P24752 34-427): T1 sequence (P24752 34-427)

[12] = biological target: T6, ACAT1 C196 (P24752) (Homo sapiens, UniProt P24752)
T6 sequence (P24752 34-427): T1 sequence (P24752 34-427)

[13] = biological target: T7, ACAT1 C413 (P24752) (Homo sapiens, UniProt P24752)
T7 sequence (P24752 34-427): T1 sequence (P24752 34-427)

[14] = biological target: SMARCC2 C145 (Q8TAQ2) (Homo sapiens, UniProt Q8TAQ2)
Experimental: as §1, §2, §3

[15] = biological target: T8, UBE2S C118 (Q16763) (Homo sapiens, UniProt Q16763)
T8 sequence (Q16763 1-222): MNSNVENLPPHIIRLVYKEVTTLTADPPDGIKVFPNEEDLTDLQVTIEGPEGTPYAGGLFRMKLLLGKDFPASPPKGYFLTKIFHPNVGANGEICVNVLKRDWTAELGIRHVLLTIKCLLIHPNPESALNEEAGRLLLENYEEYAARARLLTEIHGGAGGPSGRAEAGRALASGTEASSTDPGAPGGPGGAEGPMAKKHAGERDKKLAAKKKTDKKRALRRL
Experimental: as §1, §2, §3

[16] = biological target: GNB2L1 C182 (P63244) (Homo sapiens, UniProt P63244)
Experimental: as §1, §2, §3

[17] = biological target: GSTP1 C48 (P09211) (Homo sapiens, UniProt P09211)
Experimental: as §1, §2, §3

[18] = biological target: T9, PDE12 C108 (Q6L8Q7) (Homo sapiens, UniProt Q6L8Q7)
T9 sequence (Q6L8Q7 43-609): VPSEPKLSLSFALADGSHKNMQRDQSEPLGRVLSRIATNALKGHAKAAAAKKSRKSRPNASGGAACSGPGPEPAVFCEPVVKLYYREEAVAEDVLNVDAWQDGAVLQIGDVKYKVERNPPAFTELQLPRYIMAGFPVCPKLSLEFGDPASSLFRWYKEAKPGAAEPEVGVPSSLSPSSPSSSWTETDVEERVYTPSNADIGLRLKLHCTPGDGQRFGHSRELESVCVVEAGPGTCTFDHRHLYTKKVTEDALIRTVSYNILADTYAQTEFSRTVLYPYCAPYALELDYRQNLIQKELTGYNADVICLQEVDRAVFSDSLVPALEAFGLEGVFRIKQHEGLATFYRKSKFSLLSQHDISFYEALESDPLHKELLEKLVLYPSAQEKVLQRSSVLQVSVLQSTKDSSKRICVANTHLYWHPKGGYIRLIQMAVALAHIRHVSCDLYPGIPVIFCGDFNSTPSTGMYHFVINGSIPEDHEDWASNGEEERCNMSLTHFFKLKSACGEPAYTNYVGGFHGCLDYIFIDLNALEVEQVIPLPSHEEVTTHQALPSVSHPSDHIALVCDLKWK
Experimental: as §1, §2, §3

isoTOP-ABPP reactivity profile ratio, P24752_C119 [1]: 4.9
isoTOP-ABPP reactivity profile ratio, P68036_C86 [2]: 1.9
isoTOP-ABPP reactivity profile ratio, Q15084_C55 [3]: 12.8
isoTOP-ABPP reactivity profile ratio, Q9Y3Z3_C522 [4]: 3.0
isoTOP-ABPP reactivity profile ratio, O75362_C286 [5]: 1.0
isoTOP-ABPP reactivity profile ratio, P50851_C1704 [6]: 4.0
isoTOP-ABPP reactivity profile ratio, Q99873_C109 [7]: 2.0
isoTOP-ABPP reactivity profile ratio, O00170_C122 [8]: 4.8
isoTOP-ABPP reactivity profile ratio, O14980_C34 [9]: 1.9
isoTOP-ABPP reactivity profile ratio, Q15084_C190 [10]: 7.7
isoTOP-ABPP reactivity profile ratio, P24752_C126 [11]: 20.0
isoTOP-ABPP reactivity profile ratio, P24752_C196 [12]: 4.7
isoTOP-ABPP reactivity profile ratio, P24752_C413 [13]: 2.6
SMILES: Cc1ccc(C(F)(F)F)cc1NC(=O)CCl [compound 49]

isoTOP-ABPP reactivity ratio, P24752_C119 [1]: 1.7
isoTOP-ABPP reactivity ratio, P68036_C86 [2]: 1.9
isoTOP-ABPP reactivity ratio, Q15084_C55 [3]: 3.9
isoTOP-ABPP reactivity ratio, Q8TAQ2_C145 [14]: 1.2
isoTOP-ABPP reactivity ratio, Q16763_C118 [15]: 1.4
isoTOP-ABPP reactivity ratio, Q9Y3Z3_C522 [4]: 1.1
isoTOP-ABPP reactivity ratio, O75362_C286 [5]: 20.0
isoTOP-ABPP reactivity ratio, P63244_C182 [16]: 1.0
isoTOP-ABPP reactivity ratio, P09211_C48 [17]: 2.0
isoTOP-ABPP reactivity ratio, Q99873_C109 [7]: 1.5
isoTOP-ABPP reactivity ratio, O14980_C34 [9]: 1.3
isoTOP-ABPP reactivity ratio, Q6L8Q7_C108 [18]: 3.2
isoTOP-ABPP reactivity ratio, Q15084_C190 [10]: 7.0
isoTOP-ABPP reactivity ratio, P24752_C196 [12]: 3.0
isoTOP-ABPP reactivity ratio, P24752_C413 [13]: 2.7
SMILES: COC(=O)C1Cc2ccccc2CN1C(=O)CCl (stereo not shown) [compound 39]
